# Measured values as given in patent publication US8163767B2, “Heterocyclic Janus Kinase 3 inhibitors” (Astellas Pharma Inc., priority 2005, dated 2012).
# pIC50: −log10 of the molar value. Structures can show the parent of a compound that is named as a salt.
# Molecular target: T1, human JAK3 (Homo sapiens, UniProt P52333)
# T1 construct: His (N); purchased Carna Bioscience Inc. (Kobe, Japan); host or cells: baculovirus expression system
# Assay: Determination of Janus Kinase 3 (JAK3) inhibitory activity
# Format: biochemical
# Settings: JAK3 inhibitory activity
# Method: Test 1: Determination of Janus Kinase 3 (JAK3) Inhibitory Activity
# The assay for JAK3 activity was performed basically according to the method as proposed by Okimoto et al, as follows.
# Purified kinase domain (KD) of human JAK3 was purchased from Carna Bioscience Inc. (Kobe, Japan). 796-1124 (end) amino acids of human JAK3 [accession number #NM_000215] was expressed as N-terminal His-tagged protein (41 kDa) using the baculovirus expression system and purified by using Ni-NTA affinity chromatography.
# Biotin-Lyn-Substrate-peptide and ATP were used as substrates. Assay buffer consisted of 15 mM Tris-HCl pH7.5, 0.01% Tween 20 and 2 mM DTT. For the standard assay, 20 μL of substrate solution (Assay buffer containing 627 nM Biotin-Lyn-Substrate-2, 20 μM ATP and 25 mM MgCl2), 10 μL of assay buffer containing test compound and 20 μL of enzyme solution were added to the plate and mixed well.
# After 1 hour incubation at ambient temperature, the plate was washed 4 times with wash buffer (50 mM Tris-HCl pH 7.5, 150 mM NaCl, 0.02% Tween 20), and then blocking buffer (wash buffer containing 0.1% Bovine serum albumin) was added to the plate. After 30 minutes incubation at ambient temperature, blocking buffer was removed and HRP-PY-20 solution (HRP-PY-20 500 times diluted with blocking buffer) was added. After 30 minutes incubation at ambient temperature, the plate was washed 4 times and TMB substrate solution (Sigma) was added to the plate. After 4 minutes incubation at ambient temperature, 1 M H2SO4 was added to the plate to stop the reaction. Enzyme activity was measured as optical density at 450 nm.
# T1 sequence (P52333 796-1124): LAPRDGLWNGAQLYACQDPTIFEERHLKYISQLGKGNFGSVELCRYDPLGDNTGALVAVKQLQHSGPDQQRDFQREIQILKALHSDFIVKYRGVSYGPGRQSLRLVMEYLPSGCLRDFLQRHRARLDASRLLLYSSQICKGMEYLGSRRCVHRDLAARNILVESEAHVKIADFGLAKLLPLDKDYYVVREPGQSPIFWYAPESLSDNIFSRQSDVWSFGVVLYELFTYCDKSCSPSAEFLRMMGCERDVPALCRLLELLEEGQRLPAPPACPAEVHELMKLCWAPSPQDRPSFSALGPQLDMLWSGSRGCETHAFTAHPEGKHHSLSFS
row,pIC50,Compound
1,8.52,"C[C@@H]1CCCC[C@@H]1n1c(=O)[nH]c2cnc3[nH]ccc3c21 [Example 112, 1-[(1S,2R)-2-methylcyclohexyl]-3,6-dihydroimidazo[4,5-d]pyrrolo[2,3-b]pyridin-2(1H)-one]"
2,8.52,"C[C@@H]1CCCC[C@@H]1Nc1c(C(N)=O)cnc2[nH]ccc12 [Example 106, 4-{[(1S,2R)-2-Methylcyclohexyl]amino}-1H-pyrrolo[2,3-b]-pyridine-5-carboxamide]"

row,Compound,pIC50
1,"CC[C@@H]1CCCC[C@@H]1n1c(=O)[nH]c2cnc3[nH]ccc3c21 [Example 118, 1-[(1S,2R)-2-Ethylcyclohexyl]-3,6-dihydroimidazo[4,5-d]pyrrolo-[2,3-b]pyridin-2(1H)-one hydrochloride]",8.29

# Same assay, conditions: read-out: IR (JAK3 inhibition rate)
row,Compound,inhibition at 0.01 µM
1,"CC[C@@H]1CCCC[C@@H]1n1c(=O)[nH]c2cnc3[nH]ccc3c21 [Example 118, 1-[(1S,2R)-2-Ethylcyclohexyl]-3,6-dihydroimidazo[4,5-d]pyrrolo-[2,3-b]pyridin-2(1H)-one hydrochloride]",> 50%

# Same assay, conditions: test compound 10^−5M; read-out: IR (JAK3 inhibition rate)
row,Compound,inhibition at 10 µM
1,"CN(c1ccnc2[nH]cc([N+](=O)[O-])c12)C1CCCCC1 [Example 210, N-cyclohexyl-N-methyl-3-nitro-1H-pyrrolo[2,3-b]pyridin-4-amine]",> 50%
2,"C[C@@H]1CCCC[C@@H]1N(C)c1ccnc2[nH]cnc12 [Example 156, N-Methyl-N-[(1S,2R)-2-methylcyclohexyl]-3H-imidazo[4,5-b]-pyridin-7-amine]",> 50%
3,"O=C(O)c1cnc2[nH]ccc2c1NC1CCCCC1 [Example 96, 4-(cyclohexylamino)-1H-pyrrolo[2,3-b]pyridine-5-carboxylic acid]",> 50%
4,"CN(c1c(C(N)=O)cnc2[nH]ccc12)C1CCCCC1 [Example 4, 4-[Cyclohexyl(methyl)amino]-1H-pyrrolo[2,3-b]pyridine-5-carboxamide]",> 50%
5,"CCOC(=O)c1cnc2[nH]ccc2c1N(C)[C@H]1CCCC[C@H]1C [Example 1, ethyl 4-{methyl[(1S,2R)-2-methylcyclohexyl]amino}-1H-pyrrolo[2,3-b]pyridine-5-carboxylate]",> 50%
6,"CNC(=O)c1cnc2[nH]ccc2c1NC1CCCCC1 [Example 187, 4-(cyclohexylamino)-N-methyl-1H-pyrrolo[2,3-b]pyridine-5-carboxamide]",> 50%
7,"NC(=O)c1cnc2[nH]ccc2c1N[C@@H]1CCCC[C@@H]1CO [Example 109, 4-{[(1R,2S)-2-(Hydroxymethyl)cyclohexyl]amino}-1H-pyrrolo-[2,3-b]pyridine-5-carboxamide]",> 50%
8,"O=C(Nc1ccccc1)c1cnc2[nH]ccc2c1NC1CCCCC1 [Example 192, 4-(Cyclohexylamino)-N-phenyl-1H-pyrrolo[2,3-b]pyridine-5-carboxamide]",> 50%
9,"NC(=O)c1cnc2[nH]ccc2c1NC1CCCC1 [Example 6, 4-(Cyclopentylamino)-1H-pyrrolo[2,3-b]pyridine-5-carboxamide]",> 50%
10,"C[C@@H]1CCCC[C@@H]1N(C)c1c(C#N)cnc2[nH]ccc12 [Example 5, 4-{Methyl[(1S,2R)-2-methylcyclohexyl]amino}-1H-pyrrolo[2,3-b]-pyridine-5-carbonitrile]",> 50%
11,"CN(c1ccnc2nc[nH]c12)C1CCCCC1 [Example 209, N-cyclohexyl-N-methyl-1H-imidazo[4,5-b]pyridin-7-amine]",> 50%
12,"C[C@@H]1CCCC[C@@H]1Nc1c(C#N)cnc2[nH]ccc12 [Example 15, 4-{[(1S,2R)-2-Methylcyclohexyl]amino}-1H-pyrrolo[2,3-b]-pyridine-5-carbonitrile]",> 50%

# Next, values leading:
row,inhibition at 10 µM,Compound
1,> 50%,"CN(c1ccnc2[nH]ccc12)C1CCCCC1 [Example 211, N-cyclohexyl-N-methyl-1H-pyrrolo[2,3-b]pyridin-4-amine]"
2,> 50%,"CN(c1c(F)cnc2[nH]ccc12)C1CCCCC1 [Example 214, N-cyclohexyl-5-fluoro-N-methyl-1H-pyrrolo[2,3-b]pyridin-4-amine]"
3,> 50%,"Fc1cnc2[nH]ccc2c1NC1CCCCC1 [Example 222, N-cyclohexyl-5-fluoro-1H-pyrrolo[2,3-b]pyridin-4-amine]"
4,> 50%,"CN(c1ccnc2[nH]cc(C#N)c12)C1CCCCC1 [Example 212, 4-[cyclohexyl(methyl)amino]-1H-pyrrolo[2,3-b]pyridine-3-carbonitrile]"
5,> 50%,"C[C@@H]1CCCC[C@@H]1Nc1c(F)cnc2[nH]ccc12 [Example 225, 5-fluoro-N-[(1S,2R)-2-methylcyclohexyl]-1H-pyrrolo[2,3-b]pyridin-4-amine]"
6,> 50%,"Fc1cnc2[nH]ccc2c1N1CCCCC1 [Example 223, 5-fluoro-4-(1-piperidinyl)-1H-pyrrolo[2,3-b]pyridine]"

# Same assay, conditions: test compound 10^−8M; read-out: IR (JAK3 inhibition rate)
row,Compound,inhibition at 0.01 µM
1,"C[C@@H]1CCN(C(=O)CC#N)C[C@@H]1n1c(=O)[nH]c2cnc3[nH]ccc3c21 (relative stereo) [Example 189, rel-3-[(3R,4R)-4-Methyl-3-(2-oxo-3,6-dihydroimidazo[4,5-d]pyrrolo-[2,3-b]pyridin-1(2H)-yl)-1-piperidinyl]-3-oxopropanenitrile]",> 50%
2,"N#Cc1ccc(N2CCC(Nc3c(C(N)=O)cnc4[nH]ccc34)CC2)nc1 [Example 17, 4-{[1-(5-Cyano-2-pyridinyl)-4-piperidinyl]amino}-1H-pyrrolo-[2,3-b]pyridine-5-carboxamide]",> 50%
3,"CC1CCN(C(=O)C2(C#N)CC2)CC1n1c(=O)[nH]c2cnc3[nH]ccc3c21 (centres unmarked) [Example 175, 1-{[4-Methyl-3-(2-oxo-3,6-dihydroimidazo[4,5-d]pyrrolo[2,3-b]-pyridin-1(2H)-yl)-1-piperidinyl]carbonyl}cyclopropane-carbonitrile]",> 50%
4,"C[C@@H]1CCCC[C@@H]1n1c(=O)[nH]c2cnc3[nH]ccc3c21 [Example 112, 1-[(1S,2R)-2-methylcyclohexyl]-3,6-dihydroimidazo[4,5-d]pyrrolo[2,3-b]pyridin-2(1H)-one]",> 50%
5,"CC(C)[C@@H](C)Nc1c(C(N)=O)cnc2[nH]ccc12 [Example 18, 4-{[(1R)-1,2-Dimethylpropyl]amino}-1H-pyrrolo[2,3-b]pyridine-5-carboxamide]",> 50%
6,"C[C@@H]1CCN(C(=O)c2ccc(Cl)s2)C[C@@H]1n1c(=O)[nH]c2cnc3[nH]ccc3c21 (relative stereo) [Example 170, rel-1-{(3R,4R)-1-[(5-Chloro-2-thienyl)carbonyl]-4-methyl-3-piperidinyl}-3,6-dihydroimidazo[4,5-d]pyrrolo[2,3-b]pyridin-2(1H)-one]",> 50%
7,"C[C@@H]1CCCC[C@@H]1Nc1c(C(N)=O)cnc2[nH]ccc12 [Example 106, 4-{[(1S,2R)-2-Methylcyclohexyl]amino}-1H-pyrrolo[2,3-b]-pyridine-5-carboxamide]",> 50%

# Second part, the molecule after the results:
row,inhibition at 0.01 µM,Compound
1,> 50%,"C[C@@H]1CCN(C(=O)N2CCC(F)(F)C2)C[C@@H]1n1c(=O)[nH]c2cnc3[nH]ccc3c21 (relative stereo) [Example 274, rel-1-{(3R,4R)-1-[(3,3-difluoropyrrolidin-1-yl)carbonyl]-4-methylpiperidin-3-yl}-3,6-dihydroimidazo[4,5-d]pyrrolo[2,3-b]pyridin-2(1H)-one]"
2,> 50%,"C[C@@H]1CCCC[C@@H]1n1c(=O)[nH]c2cnc3[nH]cc(Br)c3c21 [Example 324, 8-bromo-1-[(1S,2R)-2-methylcyclohexyl]-3,6-dihydroimidazo[4,5-d]pyrrolo[2,3-b]pyridin-2(1H)-one]"
3,> 50%,"CC1CCN(C(=O)N(C)C)CC1n1c(=O)[nH]c2cnc3[nH]ccc3c21 (centres unmarked) [Example 275, N,N,4-Trimethyl-3-(2-oxo-3,6-dihydroimidazo[4,5-d]pyrrolo-[2,3-b]pyridin-1(2H)-yl)-1-piperidine carboxamide]"
4,> 50%,"CC1CCN(C(=O)N2CC(C#N)C2)CC1n1c(=O)[nH]c2cnc3[nH]ccc3c21 (centres unmarked) [Example 280, 1-{[4-Methyl-3-(2-oxo-3,6-dihydroimidazo[4,5-d]pyrrolo[2,3-b]-pyridin-1(2H)-yl)-1-piperidinyl]carbonyl}-3-azetidinecarbonitrile]"
5,> 50%,"C[C@@H]1CCN(c2ccc(C#N)cn2)C[C@@H]1n1c(=O)[nH]c2cnc3[nH]ccc3c21 [Example 240, 6-[(3R,4R)-4-Methyl-3-(2-oxo-3,6-dihydroimidazo[4,5-d]pyrrolo[2,3-b]pyridin-1(2H)-yl)-1-piperidinyl]nicotinonitrile]"
6,> 50%,"N#Cc1ccc(N2CCC(Nc3c(C(N)=O)cnc4[nH]cnc34)CC2)nc1 [Example 322, 7-{[1-(5-cyano-2-pyridinyl)-4-piperidinyl]amino}-3H-imidazo[4,5-b]pyridine-6-carboxamide]"
7,> 50%,"CC1CCN(c2ncc(C#N)s2)CC1n1c(=O)[nH]c2cnc3[nH]ccc3c21 (centres unmarked) [Example 242, 2-[4-Methyl-3-(2-oxo-3,6-dihydroimidazo[4,5-d]pyrrolo[2,3-b]-pyridin-1(2H)-yl)-1-piperidinyl]-thiazole-5-carbonitrile]"
8,> 50%,"CC1CCN(c2ccc(C#N)nn2)CC1n1c(=O)[nH]c2cnc3[nH]ccc3c21 (centres unmarked) [Example 244, 6-[4-Methyl-3-(2-oxo-3,6-dihydroimidazo[4,5-d]pyrrolo[2,3-b]-pyridin-1(2H)-yl)-1-piperidinyl]-3-pyridazinecarbonitrile]"
9,> 50%,"CC1CCN(C(=O)N(C)CC#N)CC1n1c(=O)[nH]c2cnc3[nH]ccc3c21 (centres unmarked) [Example 284, N-(Cyanomethyl)-N,4-dimethyl-3-(2-oxo-3,6-dihydroimidazo-[4,5-d]pyrrolo[2,3-b]pyridin-1(2H)-yl)-1-piperidinecarboxamide]"
